Measurements as given in patent US8951734B2, “Prion-like form of CPEB and related compositions and methods” (priority 2003, dated 2015).
*1 amine or outer side, *2 acyl side, *3 side chain or, on linkers, in order; H or OH if unused. Where a SMILES comes first, the peptide text is derived from it. Bridges are numbered along the chain shown (N, C = ends). Roman numbers before positions name the chains, in order. [ ]: non-standard residue; d: D form. Actinocin(9to1) = Cc1c2oc3c(C)ccc(C(=O)[*:1])c3nc-2c(C(=O)[*:2])c(N)c1=O; NMeV = CN[C@H](C(=O)O)C(C)C; Sar = CNCC(=O)O

Experiments:
ApCPEB [1] = assay: ApCPEB protein induction in isolated pleural ganglia / sensory cell clusters stimulated with 5-HT, with or without pharmacological agents (Western blot); format: cell-based, Aplysia; conditions: for effect on 5-HT induction of ApCPEB: pretreatment
Method: (§1) Aplysia weighing 80-100 grams were used for serotonin (5-HT) stimulation. For whole animal stimulation, the animals were stimulated for 1-1.5 hr at 17° C. with 100 uM of freshly prepared serotonin (Sigma) and then moved to sea water at 17° C. At designated times the pleural ganglia were dissected out. The dissection was carried out in ice cold seawater and frozen in a dry ice-ethanol bath. To apply different pharmacological agents, the pleural ganglia were dissected out and rested for 3-4 hrs at 17° C. before initiation of the treatment. The pleural ganglia were stimulated with 10 uM serotonin instead of 100 uM.
(§2) For western blotting pleural ganglia were homogenized in a buffer containing 600 mM KCl, 10 mM HEPES (7.4), 3 mM MgCl2, 1 mM DTT, and 0.2% NP-40; rotated at 4° C. for 20 min, centrifuged at 14,000×g for 10 min and the supernatant was collected. Approximately 10 ug of total protein was separated on a 10% SDS-PAGE gel and transferred to PVDF membrane. The membranes were blotted with affinity purified CPEB 533 (1:4000), rabbit affinity purified Aplysia Ubiquitin hydrolase (1:1500), rabbit anti-synaptophysin (Zymed) (1:3000), mouse anti-human Hsp70 (1:4000) (BD Biosciences) or monoclonal anti-tubulin (1:3000) (Sigma) followed by incubation with 1:10,000 dilution of HRP coupled anti-rabbit or anti-mouse secondary antibody (Cell signaling) and visualized by chemiluminescence (Pierce chemical). For peptide competition the CPEB77 antibody was preincubated with the peptide (1:20 w/w) at 4° C. for 30 min.

[2] = system: sensory-motor neuron synapses; conditions: cited from earlier work
ApCPEB mRNA = assay: Semi-quantitative RT-PCR of ApCPEB mRNA in sensory cells of pleural ganglia; format: cell-based, Aplysia
N-actin mRNA = assay: Poly-A tail length (PAT) assay of N-actin mRNA after whole-animal serotonin stimulation; format: in vivo, Aplysia
Method: The polyA test (PAT) to measure the length of the polyA tail of CPEB mRNA was essentially done as described by Salles and Strickland (1999). Total RNA from the plural ganglia was digested with DNase1 and phenol: chloroform extracted. 3 ug of total RNA was reverse transcribed with 200 ng of AdT primer (5′-[…]-3′) (SEQ ID NO:23) using AMV reverse transcriptase. 2 ul of the cDNA was amplified with Taq polymerase using AdT and N-actin primer 5′-[…]-3′ (SEQ ID NO:17) in the PCR cycle: 94° C. 30 sec, 60° C. 1 min and 72° C. 1 min, 5 sec/cycle for 30 cycles. To check the amount of sensorin, Bmp1 and N-actin, the following primer pairs were used; sensorin-5′-AACAGAAACAGTC-TTTCCCCC-3′ (SEQ ID NO:24) and 5′-TCTTGACTCACCAACTGCC-3′ (SEQ ID NO:25), Bmp1-5′-ATCTATCGCCTATT-ATTATCACCA-3′ (SEQ ID NO:26) and 5′-[…]-3′ (SEQ ID NO:27), N-actin 5′-CCCATCCAT-TGTCCACA-3′ (SEQ ID NO:28) and 5′-TTTGAGCATTCTGGCTTC-3′(SEQ ID NO:29).

ApCPEB [3] = assay: ApCPEB immunostaining in bifurcated sensory-motor culture, one branch stimulated with a single pulse of 5-HT; format: cell-based, Aplysia; conditions: 10 uM 5-HT for 50 seconds to one branch; fixed after one hour; n=10
Method: Following stimulation with serotonin, the cells were washed with filtered seawater and then fixed with freshly prepared 4% paraformaldehyde (PFA) in phosphate-buffered saline (PBS) plus 30% sucrose at 37° C. for 20 min. After fixation, cells were washed three times with PBS and incubated with 0.5% saponin (for isolated neurites) or 0.1% Triton X-100 (for one pulse of serotonin in the neurites) in PBS for 10 min at room temperature (RT). Subsequently cells were washed with PBS three times and excess PFA was quenched by incubating the cells in 50 mM NH4Cl in PBS for 15 min at RT. The fixed cells were blocked with a mixture of heat-inactivated 10% horse serum and 1% goat serum in PBS for 2 hr at RT, then in 1:30 dilution of affinity purified CPEB77 (for isolated neurites) or 1:100 dilution of 463 (for one pulse of serotonin in the synapse) overnight at 4° C. Next day cells were washed three times (20 min each wash) with PBS at RT before incubating with goat anti-rabbit secondary antibody conjugated with Alexa Fluor 488 (1:1000) (Molecular Probes) for 2 hr at room temperature. After three 15 min rinses with PBS cells were mounted on Fluoromount and pictures were taken at Zeiss Axiovert S-100 at 40× magnification using the program Metamorph. […]

ApCPEB [4] = assay: ApCPEB immunostaining in isolated sensory neurites (cell bodies severed); format: cell-based, Aplysia
Method: Following stimulation with serotonin, the cells were washed with filtered seawater and then fixed with freshly prepared 4% paraformaldehyde (PFA) in phosphate-buffered saline (PBS) plus 30% sucrose at 37° C. for 20 min. After fixation, cells were washed three times with PBS and incubated with 0.5% saponin (for isolated neurites) or 0.1% Triton X-100 (for one pulse of serotonin in the neurites) in PBS for 10 min at room temperature (RT). Subsequently cells were washed with PBS three times and excess PFA was quenched by incubating the cells in 50 mM NH4Cl in PBS for 15 min at RT. The fixed cells were blocked with a mixture of heat-inactivated 10% horse serum and 1% goat serum in PBS for 2 hr at RT, then in 1:30 dilution of affinity purified CPEB77 (for isolated neurites) or 1:100 dilution of 463 (for one pulse of serotonin in the synapse) overnight at 4° C. Next day cells were washed three times (20 min each wash) with PBS at RT before incubating with goat anti-rabbit secondary antibody conjugated with Alexa Fluor 488 (1:1000) (Molecular Probes) for 2 hr at room temperature. After three 15 min rinses with PBS cells were mounted on Fluoromount and pictures were taken at Zeiss Axiovert S-100 at 40× magnification using the program Metamorph.

ApCPEB [5] = assay: ApCPEB protein in pleural ganglia after whole-animal serotonin exposure (Western blot); format: in vivo, Aplysia
Method: as §1, §2

[6] = whole animal serotonin exposure then seawater

## C[C@@H]1C[C@@H]([C@H](O)CC2CC(=O)NC(=O)C2)C(=O)[C@@H](C)C1 [cycloheximide]
ApCPEB [1]; 40 uM
  effect on 5-HT induction of ApCPEB protein: reduced

## Cc1c2oc3c(C)ccc(C(=O)N[C@@H]4C(=O)N[C@H](C(C)C)C(=O)N5CCC[C@H]5C(=O)N(C)CC(=O)N(C)[C@@H](C(C)C)C(=O)O[C@@H]4C)c3nc-2c(C(=O)N[C@@H]2C(=O)N[C@H](C(C)C)C(=O)N3CCC[C@H]3C(=O)N(C)CC(=O)N(C)[C@@H](C(C)C)C(=O)O[C@@H]2C)c(N)c1=O [actinomycin D] (I: T[dV]P[Sar][NMeV] / II: T[dV]P[Sar][NMeV]; ester I:1-I:C, II:1-II:C; linker I:N-II:N via Actinocin(9to1))
ApCPEB [1]; 10 ug/ml
  effect on 5-HT induction of ApCPEB: did not block

## CCCCCCOC(=O)[C@]1(O)C[C@@H]2O[C@@]1(C)n1c3ccccc3c3c4c(c5c6ccccc6n2c5c31)C(=O)NC4 [KT5720]
ApCPEB [1]; PKA inhibitor pretreatment of sensory clusters, 30 min
  effect on serotonin induced increase in ApCPEB: did not block

## NCCc1c[nH]c2ccc(O)cc12 [serotonin]
[2]; five pulses (Martin et al. 1997)
  duration of long-term facilitation (LTF): three or more days
[2]; single pulse to one of two sets of synapses (Martin et al. 1997)
  duration of synapse-specific short-term facilitation: lasts for minutes
ApCPEB mRNA
  amount of ApCPEB mRNA, treated versus untreated: no significant difference
N-actin mRNA; whole-animal stimulation
  duration of increased poly(A) tail of N-actin: at least 4 hours
N-actin mRNA; within an hour after initiation of treatment
  increase of poly(A) tail of N-actin: 200-400 nucleotides
ApCPEB [3]
  average fluorescence intensity (ApCPEB immunoreactivity) in treated branch: 53.3±8.7
ApCPEB [4]; 10 uM 5-HT bath application 1 hr, n=8
  average fluorescence intensity (ApCPEB immunoreactivity) in stimulated neurites: 9.37±0.73
ApCPEB [1]; 5-HT for an hour, western blots scanned and quantified with NIH image, controls of inhibitor sets (FIG. 5d)
  average fold induction of ApCPEB: 3.3±0.4
ApCPEB [1]; isolated pleural ganglia, 10 uM 5-HT
  increase of total CPEB content: 3-4 fold
ApCPEB [1]; sensory cell clusters, 10 uM 5-HT for 10 min, then seawater 50 min
  increase in total ApCPEB protein content: 4-5 fold
ApCPEB [5]; whole animal exposed to serotonin for one hour, thirty minutes after initiation of treatment, pleural ganglia extract
  increase of total content of ApCPEB: 4 to 5 fold
ApCPEB [5]; [6]
  persistence of increased level of ApCPEB: about 3 hours
  return of ApCPEB to basal levels: returned to basal levels after five hours

## CC[C@H](C)[C@@H]1NC(=O)CNC(=O)[C@@H]2Cc3c([nH]c4cc(O)ccc34)[S+]([O-])C[C@@H](NC(=O)CNC1=O)C(=O)N[C@@H](CC(N)=O)C(=O)N1C[C@H](O)C[C@H]1C(=O)N[C@@H]([C@@H](C)[C@@H](O)CO)C(=O)N2 (stereo in doubt) [α-amanitin]
ApCPEB [1]; 50 ug/ml
  effect on 5-HT induction of ApCPEB: did not block

## CC[C@H]1CN2CCc3cc(OC)c(OC)cc3[C@@H]2C[C@@H]1C[C@H]1NCCc2cc(OC)c(OC)cc21 [emetine]
ApCPEB [1]; 100 uM
  effect on 5-HT induction of ApCPEB protein: reduced

## Nc1ncnc2c1ncn2[C@@H]1O[C@@H]2COP(O)(=S)O[C@H]2[C@H]1O (stereo partly drawn) [SpcAMP]
ApCPEB [1]; activation of PKA by cell permeable cAMP analog, data not shown
  level of ApCPEB: did not change

## CO[C@H]1C[C@@H]2CC[C@@H](C)[C@@](O)(O2)C(=O)C(=O)N2CCCC[C@H]2C(=O)O[C@H]([C@H](C)C[C@@H]2CC[C@@H](O)[C@H](OC)C2)CC(=O)[C@H](C)/C=C(\C)[C@@H](O)[C@@H](OC)C(=O)[C@H](C)C[C@H](C)/C=C/C=C/C=C/1C [rapamycin]
ApCPEB [4]; neurites stimulated with 5-HT in presence of 20 nM rapamycin, n=9
  average fluorescence intensity (ApCPEB immunoreactivity): 0.77±0.1

## COc1ccc2c(c[n+](C)c3c4cc5c(cc4ccc23)OCO5)c1OC [chelerythrine]
ApCPEB [1]; PKC inhibitor, 10 uM
  effect on serotonin dependent increase of ApCPEB protein: did not affect
